{
  "source": "patent US7521418B2",
  "about": "“Use of a polyene macrolide antifungal agent in combination with a glycopeptide antibacterial agent” (Theravance, Inc., priority 2003, dated 2009)",
  "system": "P. boydii ATCC 38283",
  "assay": "Checkerboard MIC assay, FICI",
  "type": "cell-based, Pseudallescheria boydii",
  "conditions": "combination with Compound 1",
  "from_the_text": "The following assay was used to determine the minimum inhibitory concentration (MIC) and fractional inhibitory concentration index (FICI) for combinations of an antifungal agent and a glycopeptide antibacterial agent. This assay and methods for calculating FICI are well known in the art. See, for example, Eliopoulos, E. G. and R. Moellering, Jr. “Antimicrobial Combinations” in Antibiotics in Laboratory Medicine, edited by V. Lorian, 4th Ed., Williams & Wilkins, Baltimore, MD, pp. 330-396 (1996); […] et al., Antimicrobial Agents and Chemotherapy 47(4):1416-1418 (2003); or […] et al., Antimicrobial Agents and Chemotherapy 46(10):3323-3326 (2002). […] The MIC of the glycopeptide antibacterial agent determined from this experiment was used in FIC calculations. […]",
  "data": [
    {"smiles": "C[C@@H]1[C@H](O)[C@@H](C)/C=C/C=C/C=C/C=C/C=C/C=C/C=C/[C@H](O[C@@H]2O[C@H](C)[C@@H](O)[C@H](N)[C@@H]2O)C[C@@H]2O[C@](O)(C[C@@H](O)C[C@@H](O)[C@H](O)CC[C@@H](O)C[C@@H](O)CC(=O)O[C@H]1C)C[C@H](O)[C@H]2C(=O)O", "note": "[Amphotericin B]", "values": [
      {"measurement": "FICI", "value": 0.38}
    ]},
    {"smiles": "C[C@@H]1[C@H](O)[C@@H](C)/C=C/C=C/CC/C=C/C=C/C=C/C=C/C(O[C@H]2O[C@H](C)[C@@H](O)[C@H](N)[C@@H]2O)CC2O[C@](O)(CC(O)C(O)CCC(O)CC(O)CC(O)CC(=O)O[C@H]1C)CC(O)C2C(=O)O", "note": "(some centres unmarked) [Nystatin]", "values": [
      {"measurement": "FICI", "value": 0.38}
    ]}
  ]
}
